Experimental data taken from patent US8158317B2, “Azo dye compound, coloring composition, ink sheet for thermal transfer recording, thermal transfer recording method, color toner, ink for inkjet, and color filter” (FUJIFILM Corporation, priority 2006, dated 2012).

Assays:
Assay type in all cases: physicochemical
[1] = Light stability (lightfastness) of thermal transfer images under Xe light; details: Xe light (17000 lux) for 7 days; density retentiveness ratio to original reflection density 1.0; three ranks
Experimental: Next, the recorded thermal transfer image-receiving materials were exposed to an Xe light (17000 lux) for 7 days and tested for the light stability (lightfastness) of the images. After the exposure, the status A reflection density of the part originally having a status A reflection density of 1.0 was measured, and the image stability was indicated by the density retentiveness ratio (percentage) to the original reflection density 1.0 before exposure. The samples were evaluated in three ranks, A (from 80% to less than 100%), B (from 60% to less than 80%), and C (less than 60%).

[2] = Maximum absorption wavelength of the absorption spectrum in ethyl acetate solution; details: for Maximum Absorption Wavelength: concentration 1×10^−6 mol/L, optical path length 10 mm; for λmax: stated in the production example
Text: The maximum absorption wavelength of the absorption spectrum in an ethyl acetate solution (concentration 1×10^−6 mol/L; optical path length, 10 mm) of these compounds is shown in Table 1 below.

[3] = Dye solubility when preparing the coating composition for dye-donating layer formation (ink sheet); parameters: key: A (soluble easily); B (soluble); C (soluble but hardly); details: dye in coating composition with polyvinylbutyral resin, methyl ethyl ketone/toluene (1/1); three ranks
Text: A polyester film (Lumirror, Toray's trade name) having a thickness of 6.0 μm and coated with a thermoplastic acrylic resin (thickness, 1 μm) for heat-resistant lubrication on the back thereof was used as a support. The following coating composition for dye-donating layer formation was applied onto the surface of the support film, in a mode of wire bar coating, thereby forming a coating layer having a dry thickness of 1 μm thereon to give an ink sheet 1.
(Coating Composition for Dye-donating Layer Formation)
Next, ink sheets 2 to 5 of the invention and comparative ink sheets 6 to 8 were formed in the same manner as that for the ink sheet 1 but using the dye shown in Table 2 below in place of Compound (1). In this process, the dye solubility was evaluated in three ranks; A (soluble easily), B (soluble), C (soluble but hardly).

Compound	Lightfastness [1]	Maximum Absorption Wavelength [2] [nm]	Solubility [3]	λmax [2] [nm]
CC(C)(C)c1nn(-c2ccccc2)c(N)c1/N=N/c1ccc([N+](=O)[O-])cc1 [Comparative Dye 1, reference compound]	B (B (from 60% to less than 80%))	–	B	–
CCN(CC)C(=O)n1c(/N=N/c2ccc(N(CC)CC)cc2NC(C)=O)nc(C#N)c1C#N [Comparative Dye 2, reference compound]	B (B (from 60% to less than 80%))	–	A	–
Cn1nc(C(C)(C)C)c(/N=N/c2nc(C#N)c(C#N)[nH]2)c1N [Comparative Dye 3, reference compound]	C (C (less than 60%))	–	B	432
CCN(CCOc1ccc(C2CCCCC2)cc1)c1ccc(C=C(C#N)C#N)c(C)c1 [Comparative Dye 4, reference compound]	C (C (less than 60%))	–	A	–
CCCCN(CCCC)C(=O)c1ccc2c(c1)C(=O)C(c1nc3ccc(C(C)C)cc3cc1O)C2=O (stereo not drawn) [Comparative Dye 5, reference compound]	A (A (from 80% to less than 100%))	–	B	–

The next lines start with the values.

Lightfastness [1]	Maximum Absorption Wavelength [2] [nm]	Solubility [3]	λmax [2] [nm]	Compound
A (A (from 80% to less than 100%))	439	A	–	CN(C)C(=O)n1c(/N=N/c2c(C(C)(C)C)nn(C)c2N)nc(C#N)c1C#N [(2)]
A (A (from 80% to less than 100%))	452	A	–	CC(=O)n1c(/N=N/c2c(C(C)(C)C)nn(C)c2N)nc(C#N)c1C#N [(3)]
A (A (from 80% to less than 100%))	454	A	–	Cn1nc(C(C)(C)C)c(/N=N/c2nc(C#N)c(C#N)n2C(=O)c2ccccc2)c1N [(4)]
A (A (from 80% to less than 100%))	451	A	–	COC(=O)n1c(/N=N/c2c(C(C)(C)C)nn(C)c2N)nc(C#N)c1C#N [(5)]
A (A (from 80% to less than 100%))	438	A	438	CCN(CC)C(=O)n1c(/N=N/c2c(C(C)(C)C)nn(C)c2N)nc(C#N)c1C#N [Compound (1)]
